Experiment [1] concerns the target T1, soluble H-2K^b (Mus musculus, UniProt P01901).
T1 construct: heavy chain residues 1-274 with C-terminal His-tag and β2-microglobulin residues 1-99; His-tag (C); made in house; host or cells: Drosophila melanogaster cells
T1 sequence (P01901 22-295): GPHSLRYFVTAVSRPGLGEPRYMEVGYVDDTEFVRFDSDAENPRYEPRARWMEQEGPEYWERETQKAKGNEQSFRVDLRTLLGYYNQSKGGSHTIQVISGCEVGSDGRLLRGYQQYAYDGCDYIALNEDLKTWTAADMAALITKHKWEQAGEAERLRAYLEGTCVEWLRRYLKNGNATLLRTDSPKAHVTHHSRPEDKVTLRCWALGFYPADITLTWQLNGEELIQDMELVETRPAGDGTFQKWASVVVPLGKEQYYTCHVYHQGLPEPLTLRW
T1 sequence (P01887 21-119 partner): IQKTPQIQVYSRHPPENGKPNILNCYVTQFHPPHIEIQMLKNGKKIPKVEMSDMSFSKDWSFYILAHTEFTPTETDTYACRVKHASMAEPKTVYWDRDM
The experiment can be described thus: Affinity measurements for binding of peptides to soluble H-2K^b (inhibition assay). The note with it: for increase in peptide affinity compared to MUC1-8 (competition studies): discussion, temperature not stated. The procedure: The soluble extracellular domains of H-2K^b (heavy chain […]-terminal His-tag and β2-microglobulin […]. melanogaster cells, under the control of a metallothionein promoter as previously described. Briefly, D. melanogaster cells were expanded to large scale (up to 6 L) in serum free Insect Xpress® media (Cambrex Corporation, East Rutherford, N.J., United States of America) and CuSO4 (625 μM final concentration) was added 3-5 days before harvesting to induce expression of H-2K^b. The supernatant was concentrated using a […] tangential flow concentrator (PALL Corporation, East Hills, N.Y., United States of America) using a 10 kDa MWCO membrane (PALL) and then loaded onto an Ni-NTA column and eluted using 10-250 mM imidazole buffer gradient, pH 7.5. […] Affinity measurements for binding of peptides to soluble H-2K^b molecules were performed as previously described.

Experiment [2] has as its system MCF7 cells (human MUC1^+ breast cancer cell line). Particulars: HLA-A2 transgenic mice; previous studies [59]; cited from earlier work.
For experiment [3], the target named is T2, MHC class I, H-2K^b on RMA-S cells (Mus musculus, UniProt P01901).
T2 construct: MHC class I molecules in the murine cell line RMA-S; endogenous in cells; host or cells: RMA-S (murine, C57BL/6, TAP2-deficient)
T2 sequence (P01901 22-369): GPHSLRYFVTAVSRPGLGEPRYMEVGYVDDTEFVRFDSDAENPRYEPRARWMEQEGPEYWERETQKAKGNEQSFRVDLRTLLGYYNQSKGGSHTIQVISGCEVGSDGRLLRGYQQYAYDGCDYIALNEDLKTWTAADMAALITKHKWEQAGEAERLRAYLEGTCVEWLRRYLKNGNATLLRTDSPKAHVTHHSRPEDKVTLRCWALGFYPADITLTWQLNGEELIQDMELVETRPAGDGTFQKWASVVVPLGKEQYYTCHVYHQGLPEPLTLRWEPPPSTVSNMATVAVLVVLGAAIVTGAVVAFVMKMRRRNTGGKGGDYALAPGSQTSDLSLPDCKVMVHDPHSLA
T2 sequence (P01887 21-119 partner): T1 sequence (P01887 21-119 partner)
The experiment can be described thus: Peptide stabilisation assay using RMA-S cells (FACScan). It is filed as cell-based, murine. The note with it: TAP2-deficient RMA-S cells at 26° C. The procedure:
MHC class I molecules in the murine cell line RMA-S (C57BL/6 TAP2-deficient cells) can be used to measure the direct binding of peptides to class I molecules in vitro. RMA-S cells (5×10^5 cells) were incubated with peptides (10^−4-10^−13 M) at 26° C. for 3 hr then transferred to 37° C. for 30 min. After washing with 0.5% BSA/PBS (2 ml), anti-H-2K^b (HB-158) IgG2a as supernatant (1/50 dilution, 100 μl) was added to RMA-S peptide loaded cells and incubated for 45 minutes at 4° C. The cells were washed once again and 100 μl (1:500 dilution) of FITC-conjugated sheep (Fab′)2 anti-mouse immunoglobulin was added and incubated for 45 min at 4° C.; after further washing, cells were analyzed by FACScan.

The test system of experiment [4] is MUC1×HLA-A2 transgenic mice. Kind of experiment: IFN-γ ELISpot on splenocytes of MUC1×HLA-A2 transgenic mice immunised with peptide-pulsed DC. Particulars: for recognition of all peptides higher than MUC1-8: MUC1×HLA-A2 transgenic mice. It is filed as in vivo, mouse. The procedure: (§1) C57BL/6 (H-2^b) or MUC1×HLA-A2 (H-2^b/H-2^d/HLA-A2) transgenic 6-8 week old mice were used. Bone marrow cells from C57BL/6 or MUC1×HLA-A2 female mice were cultured at 1×10^6 cells/ml in tissue culture media, supplemented with 10 ng/ml GM-CSF/IL-4. At day 6, cells were washed, re-suspended in the same culture media and 20 μg/ml peptides were loaded on DCs for 3 hr. Pulsed DC were washed and 100 μl (1-2×10^6 cells) injected intradermally in female mice into the base of tail. After 14 days mice were boosted and 16 days later splenocytes assessed by ELISpot.
(§2) To assess peptide specific IFN-γ production by CD8^+ T cells to each peptide, splenocytes from immunised mice were used in IFN-γ ELISpot assays. Spleen cells were incubated with 10^−5-10^−10 M of each MUC1 peptide, irrelevant peptide (OVA8, […]; SEQ ID NO: 8) or internal positive control concanavalin A (ConA) for 18 hr at 37° C., 8% CO2 on nitrocellulose plates [pre-coated with an anti-murine IFN-γ monoclonal antibody]. Plates were developed as previously described.

Experiment [5] concerns C57BL/6 mice. Kind of experiment: IFN-γ ELISpot on splenocytes of C57BL/6 mice immunised with peptide-pulsed DC. It is filed as in vivo, mouse. The procedure: as §1, §2
Experiment [6] has as its target HLA-A2 (Homo sapiens, UniProt P04439, D140Y/D185E/D98H/E176V/E277Q/G131W/G231S/I119V/I121R/I166T/I218V/L10V/L300P/L318F/N151K/N90K/P208A/P217A/Q86G/Q94H/R138H/R169H/T345S). Particulars: cited from earlier work.
In experiment [7] the test system is MCF7 cells (human MUC1^+ breast cancer cell line). The experiment can be described thus: Standard 51Cr CTL assay after immunisation of HLA-A2/K^b transgenic mice. The experiment is classed as in vivo, mouse. The note with it: HLA-A2 transgenic mice immunised with peptide-KLH-oxidised mannan. The procedure:
Peptide was coupled to KLH via glutaraldehyde. In brief, 2 mg KLH in 1 ml phosphate buffer saline (PBS) and 2 mg peptide in 1 ml PBS were mixed and added dropwise to 1 ml of 0.75% glutaraldehyde, and reacted overnight at room temperature. Glutaraldehyde is a bi-functional coupling reagent that links two compounds through their amino groups.
14 mg mannan was dissolved in 1 ml sodium phosphate buffer (pH 6), followed by the addition of 100 μl 0.1 M sodium periodate (dissolved in pH 6 phosphate buffer) and incubated on ice for 1 hour in the dark. 10 μL ethanediol was then added to the mixture and incubated for a further 30 mins on ice. The resultant mixture (oxidised mannan) was passed through a PD-10 column (Sephadex G-25 M column) pre-equilibrated in pH 9.0 phosphate buffer, to exclude out sodium periodate and ethanediol. Oxidised mannan (7 mg/ml) was eluted with 2 ml of pH 9 phosphate buffer, to which 1 mg peptide-KLH was added and allowed to react overnight at room temperature in the dark. Conjugation occurs via Schiff base formation between free amino groups of KLH and oxidised mannan. Samples were used without further purification. […]
HLA-A2/K^b transgenic mice were immunised with 5 μg of peptide intraperitoneally on days 0, 10, 17 and 7-10 days later CTL responses were measured using standard CTL assay as previously described.

Where [8] appears, read: 4° C., means of 5 values, SE 10-15%, read-out: KD 4° C.
Setting [9] is: 23° C., means of 5 values, SE 10-15%, read-out: KD 23° C.
[10] abbreviates: 37° C., means of 5 values, SE 10-15%, read-out: KD 37° C.

Like-named read-outs stand apart in the source and are kept apart here. No end group written: not given here. Where only a bound is given, the exact number is not on record here.

In the case of `CC[C@H](C)[C@H](NC(=O)[C@@H](NC(=O)[C@@H](N)CO)[C@@H](C)CC)C(=O)N[C@@H](CC(N)=O)C(=O)N[C@@H](Cc1ccccc1)C(=O)N[C@@H](CCC(=O)O)C(=O)N[C@@H](CCCCN)C(=O)N[C@@H](CC(C)C)C(=O)O` [OVA8, reference compound], the Kd in experiment [1] (setting [8]) came out at 6 nM; in experiment [1] (setting [9]) it was 10 nM.
As for `CC(C)C[C@H](NC(=O)CNC(=O)[C@H](CCC(N)=O)NC(=O)[C@H](Cc1ccc(O)cc1)NC(=O)[C@@H](NC(=O)[C@H](Cc1ccc(O)cc1)NC(=O)CNC(=O)[C@@H](N)CCCNC(=N)N)C(C)C)C(=O)O` [VSV8, reference compound], the Kd turned out to be 34 nM in experiment [1] (KD 4° C.), 27 nM in experiment [1] (KD 23° C.) and 163 nM in experiment [1] (KD 37° C.).
For the molecule “DLHWASWV-KLH-oxidised mannan: mimic mutant peptide DLHWASWV conjugated to KLH and oxidised mannan, used as control (also: conjugated to KLH and oxidised mannan)”, the “CTL lysis of MCF7 cells, in words” value in experiment [2] is on record as “able to specifically lyse MCF7 cells”.
Regarding SAPDFRPA [MUC1-8-5F], the figures for the Kd in experiment [1] (setting [8]), in experiment [1] (setting [9]) and in experiment [1] (setting [10]) were 460 nM, 130 nM and 4900 nM, respectively. The “increased peptide affinity by mutation of MUC1-8” value (shortened to “increased peptide affinity”) in experiment [1] (at 23° C. and 37° C.) is on record as “at least 7 fold”. For the same molecule, the “increase in peptide affinity compared to MUC1-8 (competition studies)” value (“increase in peptide affinity” below) in experiment [1] is 7 fold. In addition, the “peptide concentration at which H-2K^b was stabilised” value in experiment [3] is on record as > 10^−7 M. For the same molecule, the “recognition of all peptides higher than MUC1-8” value in experiment [4] was 10 fold.
Take SAPDFRPL [MUC1-8-5F8L]: the Kd in experiment [1] (setting [8]) was found to be 160 nM; in experiment [1] (setting [9]), 60 nM; in experiment [1] (setting [10]), 300 nM. Moreover, in experiment [1] (at 23° C.), the “increased peptide affinity” value turned out to be 14 fold. Also, the “increase in peptide affinity” value in experiment [1] amounted to 14 fold. Moreover, the “T cell response by IFN-γ ELISpot, in words” value in experiment [5] (C57BL/6 mice) is on record as “the number of sfu/500,000 was higher”; in experiment [4] (MUC1×HLA-A2 transgenic mice (MUC1-8 is self)) it was “generated even higher affinity T cells which recognised all peptides”. Also, the precursor frequency in experiment [5] (after immunisation, mouse strain not given) is reported as 400 sfu/500,000 cells. The “peptide concentration at which H-2K^b was stabilised” value in experiment [3] is > 10^−9 M.
For SAPDTRPA [MUC1-8, reference compound], the Kd worked out at 433 nM in experiment [1] (setting [8]); 430 nM in experiment [1] (4° C., read-out: affinity measured in an inhibition assay); 877 nM in experiment [1] (setting [9]); 870 nM in experiment [1] (23° C., read-out: affinity measured in an inhibition assay); 37000 nM in experiment [1] (setting [10]).
For the molecule SAPDTRPL [MUC1-8-8L], the figures for the Kd in experiment [1] (setting [8]), in experiment [1] (setting [9]) and in experiment [1] (setting [10]) were 150 nM, 250 nM and 8900 nM, respectively. For the same molecule, the “increased peptide affinity” value in experiment [1] (at 23° C. and 37° C.) is on record as “at least 3 fold”. Besides, the “increase in peptide affinity” value in experiment [1] is given as 3 fold. Moreover, the “peptide concentration at which IFN-γ secreting T cells recognised all peptides” value in experiment [5] (C57BL/6 mice immunised with peptide-pulsed DC) is given as 10^−9-10^−5 M. Besides, the “peptide concentration at which H-2K^b was stabilised” value in experiment [3] is listed as > 10^−6 M. Also, in experiment [4], the “recognition of all peptides higher than MUC1-8” value is 10 fold.
On to STAPPAHGV (listed as Homo sapiens), for which the “binding affinity to HLA-A2, in words” value in experiment [6] is on record as “low-medium affinity”.
Regarding “TTAPPVHGL (Artifical sequence derived from human or mouse MUC1 T cell epitope)”, in experiment [7], the “CTL lysis of MCF7 cells, in words” value is recorded as “lysed MCF7 cells similarly to STAPPAHGV”.
On the same count and under the same terms, the value for “TTAPPVHGL-KLH-oxidised mannan: peptide TTAPPVHGL coupled to KLH via glutaraldehyde and then to oxidised mannan (also: conjugated to KLH, conjugated to oxidised mannan)” was “able to specifically lyse MCF7 cells”.
